Measured values published in patent US20220072014A1, “PHARMACEUTICAL COMPOSITION WHICH COMPRISES THE COMBINATION OF A SELECTIVE INHIBITOR OF CYCLOOXYGENASE 2 AND A CARBAMATE DERIVED FROM GUAIFENESIN FOR TREATING PAIN, INFLAMMATION AND MUSCULAR CONTRACTION” (priority 2018, published 2022).

Legend:
[1] = tested on: gout arthritis induced by intra-articular uric acid; assay: pain-induced functional impairment in the rat model (PIFIR model), uric acid-induced gout arthritis; type: in vivo, male Wistar rats
Experimental: All experiments were performed during the light phase of the light/darkness cycles.

[2] = tested on: arthrosis and rheumatoid arthritis (RA) patients; details: patients without concomitant ASA; cited from earlier work
[3] = weight gain of experimental animals; type: in vivo, rats; details: celecoxib doses used for the chronic treatment DRC, alone or combined
rats (lethality) = assay: preclinical toxicity (lethality) study after oral administration; type: in vivo, male Wistar rats
Source text: In order to determine the possible antinociceptive and toxic effects of the combination, male Wistar rats [Crl:(WI)fBR] with a weight of 180-200 g were used. All experimental procedures complied with the recommendations of the Committee for Research and Ethical Issues of the International Association for the Study of Pain (Covino et al., 1980) and the Guidelines on Ethical Standards for Investigations of Experimental Pain in Animals (Zimmermann 1983). The number of experimental animals was kept to a minimum (6 animals per experimental point for antinociceptive effects and 10 animals per experimental point for adverse effects:lethality). The rats were kept in a room with alternating light/darkness cycles. For twelve hours before the antinociception experiments rats fasted but had free access to water. All experiments were performed during the light phase of the light/darkness cycles.
The lethal toxic effects after single administrations were determined in 3 post-treatment timepoints, 24, 48 and 72 hours, in order to determine the corresponding DRC (death).

[4] = FDA prescribing information; cited from earlier work
[5] = oral route, cited from earlier work

## Cc1ccc(-c2cc(C(F)(F)F)nn2-c2ccc(S(N)(=O)=O)cc2)cc1 [celecoxib, 4-[5-(4-methylphenyl)-3-(trifluoromethyl)-1H-pyrazol-1-yl]benzenesulfonamide]
[1]; 2.5 h after oral administration, celecoxib 1,000 mg/Kg alone or with methocarbamol 50 mg/Kg
  maximal effect (% FI): 63.6±9.9%
[1]; 4 h after oral administration, celecoxib 1,000 mg/Kg alone or with methocarbamol 50 mg/Kg
  effect four hours after being administered (% FI): 62.5±7.0%
[1]; Rattus norvegicus, po, read-out: ED50 (antinociceptive dose-response curve)
  ED50: 51.1 mg/kg
[1]; oral, acute administration, 4-hour assessment, most efficacious dose celecoxib 1,000 mg/Kg (combination with methocarbamol 50 mg/Kg)
  peak antinociceptive effectiveness (AUC of temporal course, global antinociceptive effect): 191.9±27.2 area units (au)
[2]
  GI bleeding incidence: lower GI bleeding incidence
[3]
  effect on normal weight gain: does not modify the normal weight gain
Rats (lethality); 24 hours
  dose at which the lethality DRC begins: 17800 mg/kg
[4]
  estimated effective half-life: 8 to 12 h

## COc1ccccc1OCC(O)COC(N)=O (stereo not drawn) [methocarbamol, 3-(2-methoxyphenoxy)-1,2-propanediol 1-carbamate]
[1]; methocarbamol 50 mg/Kg alone, oral, 4-hour assessment
  antinociceptive effect during the assessment period: did not produce any antinociceptive effect whatsoever
[5]; humans
  time to peak action: ≤ 2 h
[5]
  time to reach active levels: ≤ 30 min
Rats (lethality)
  dose causing lethality effects within 24 hours: 1,000 mg/Kg
